pIC50: −log10 of the molar value. “And” between values parts separate entries of the source, which are not always exact repeats. Identical values can stand only once. Counter-ions that a name gives are not always drawn.
Tests used:
[1] = molecular target: T1, VEGFR-3-TK (Homo sapiens, UniProt P35916); assay: Measurement of the tyrosine kinase activity of VEGFR-3 by ELISA (phosphorylation of poly Glu-Tyr); assay type: biochemical; conditions: VEGFR-3 ELISA, poly Glu-Tyr substrate, 30 μM ATP, 30 min at ambient temperature; read-out: IC50 (concentration which decreases the total activity of the enzyme by 50%)
T1 construct: purchased Cell Signaling 7790
T1 sequence (P35916 800-1297 limits assumed): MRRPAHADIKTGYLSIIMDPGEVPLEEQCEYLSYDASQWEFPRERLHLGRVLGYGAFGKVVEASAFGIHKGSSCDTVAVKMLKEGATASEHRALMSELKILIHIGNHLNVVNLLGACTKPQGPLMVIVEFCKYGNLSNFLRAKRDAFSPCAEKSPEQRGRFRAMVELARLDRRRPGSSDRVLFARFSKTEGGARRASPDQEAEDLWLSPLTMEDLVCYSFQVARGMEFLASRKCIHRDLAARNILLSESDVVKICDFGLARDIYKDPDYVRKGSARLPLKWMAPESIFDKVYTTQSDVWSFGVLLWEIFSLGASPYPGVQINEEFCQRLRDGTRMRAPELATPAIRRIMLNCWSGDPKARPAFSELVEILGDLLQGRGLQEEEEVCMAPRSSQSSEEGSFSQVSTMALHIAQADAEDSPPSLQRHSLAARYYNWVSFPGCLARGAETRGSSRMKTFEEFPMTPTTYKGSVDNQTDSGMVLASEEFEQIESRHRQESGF
Procedure: The compounds according to the invention have formed the subject of pharmacological assays which make it possible to determine their inhibitory effect on the VEGFR-3 enzyme.
Measurement of the Tyrosine Kinase Activity of VEGFR-3 by ELISA
The effect of the products is quantified by the concentration which decreases the total activity of the enzyme by 50% (IC50). For the determination of the IC50 values, the product is diluted in DMSO with a concentration range which extends from 3 to 1000 nM. The day before the manipulation, 125 μl of the poly Glu-Tyr substrate (250 μg/ml in 1×PBS without Ca^2+ or Mg^2+ or sodium bicarbonate) are deposited in each well of an ELISA plate (for example, an ELISA plate of the SIGMA Protein Tyrosine Kinase Assay kit, Ref. PTK-101). The plate is subsequently covered with an adhesive film and incubated overnight at 37° C. The following day, the wells are emptied by turning the plate over, washed by adding 300 μl of buffer solution (PBS+0.05% Tween 20) and dried by further incubation of the plate for 2 h at 37° C. A 90 μl reaction mixture is deposited onto each well. This mixture comprises the 1× kinase buffer to which 30 μM of ATP and the inhibitor at the desired concentration have been added. […]

Row | pIC50 [1] | melting point | Structure (SMILES)
1 | 6.35 | – | CCn1c(N)c(C(=O)NC)c(=O)c2ccc(C#CC(C)(C)N)nc21 [Compound 4, 2-Amino-7-(3-amino-3-methylbut-1-yn-1-yl)-1-ethyl-N-methyl-4-oxo-1,4-dihydro-1,8-naphthyridine-3-carboxamide hydrochloride]
2 | – | 185 to 187 °C | CCn1c(N)c(C(=O)NC)c(=O)c2ccc(C#CC(C)(COC)OC)nc21 (racemic) [Compound 1, (±)-2-Amino-7-(3,4-dimethoxy-3-methylbut-1-yn-1-yl)-1-ethyl-N-methyl-4-oxo-1,4-dihydro-1,8-naphthyridine-3-carboxamide]
3 | 6.46 | 233 °C | CCn1c(N)c(C(=O)NC)c(=O)c2ccc(C#CCOC)nc21 [Compound 5, 2-amino-1-ethyl-7-(3-methoxyprop-1-yn-1-yl)-N-methyl-4-oxo-1,4-dihydro-1,8-naphthyridine-3-carboxamide]
4 | – | 204 °C | CCn1c(N)c(C(=O)NC)c(=O)c2ccc(C#CC(C)(C)OCC(N)=O)nc21 [Compound 6, 2-Amino-7-[3-(2-amino-2-oxoethoxy)-3-methylbut-1-yn-1-yl]-1-ethyl-N-methyl-4-oxo-1,4-dihydro-1,8-naphthyridine-3-carboxamide]

The next lines start with the compound.

Row | Structure (SMILES) | pIC50 [1] | melting point
5 | CCn1c(N)c(C(=O)NC)c(=O)c2ccc(C#CC(C)(C)N)nc21 (as salt: hydrochloride) [Compound 4, 2-Amino-7-(3-amino-3-methylbut-1-yn-1-yl)-1-ethyl-N-methyl-4-oxo-1,4-dihydro-1,8-naphthyridine-3-carboxamide hydrochloride] | – | 293 °C
6 | CCn1c(N)c(C(=O)NC)c(=O)c2ccc(C#CCNC(=O)OC)nc21 [Compound 2, Methyl {3-[7-amino-8-ethyl-6-(methylcarbamoyl)-5-oxo-5,8-dihydro-1,8-naphthyridin-2-yl]prop-2-yn-1-yl}carbamate] | – | 255 °C and 250 °C
